Experimental data as given in patent US20240246977A1, “DEGRADATION OF BRUTON'S TYROSINE KINASE (BTK) BY CONJUGATION OF BTK INHIBITORS WITH E3 LIGASE LIGAND AND METHOD OF USE” (BeiGene Switzerland GmbH, priority 2021, published 2024).

Legend:
HEK-293 cells = experiment: HEK-293 cytotoxicity detection (CellTiter-Glo); assay type: cell-based; details: Homo sapiens, 72 h, 72 h incubation, CellTiter-Glo luminescence, read-out: HEK293
Procedure, shortened: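 HEK-293 cells exposed 72 h to 8 compounds doses (4-fold dilutions, top stock 5 mM at 500×) in 0.2% DMSO. Viability by CellTiter-Glo luminescence; inhibition normalised to DMSO high control and low control, IC50 from four-parameter curve fit.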

BTK = BTK (Homo sapiens, UniProt Q06187); experiment: BTK cell degradation in TMD-8 cells, HTRF assay; assay type: cell-based; set-up: endogenous in cells; host or cells: TMD-8 cells; details: 6 h treatment, IC50 (DC50) of BTK degradation
Procedure, shortened: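 TMD-8 cells treated 6 h with 8-dose series (6-fold dilutions, 0.2% DMSO final), then lysed and BTK quantified by HTRF (337/665/620 nm) after overnight antibody incubation at room temperature. Degradation normalized to DMSO high and low controls; DC50 and Dmax from four-parameter fit.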

BTK, sequence (Q06187 whole entry): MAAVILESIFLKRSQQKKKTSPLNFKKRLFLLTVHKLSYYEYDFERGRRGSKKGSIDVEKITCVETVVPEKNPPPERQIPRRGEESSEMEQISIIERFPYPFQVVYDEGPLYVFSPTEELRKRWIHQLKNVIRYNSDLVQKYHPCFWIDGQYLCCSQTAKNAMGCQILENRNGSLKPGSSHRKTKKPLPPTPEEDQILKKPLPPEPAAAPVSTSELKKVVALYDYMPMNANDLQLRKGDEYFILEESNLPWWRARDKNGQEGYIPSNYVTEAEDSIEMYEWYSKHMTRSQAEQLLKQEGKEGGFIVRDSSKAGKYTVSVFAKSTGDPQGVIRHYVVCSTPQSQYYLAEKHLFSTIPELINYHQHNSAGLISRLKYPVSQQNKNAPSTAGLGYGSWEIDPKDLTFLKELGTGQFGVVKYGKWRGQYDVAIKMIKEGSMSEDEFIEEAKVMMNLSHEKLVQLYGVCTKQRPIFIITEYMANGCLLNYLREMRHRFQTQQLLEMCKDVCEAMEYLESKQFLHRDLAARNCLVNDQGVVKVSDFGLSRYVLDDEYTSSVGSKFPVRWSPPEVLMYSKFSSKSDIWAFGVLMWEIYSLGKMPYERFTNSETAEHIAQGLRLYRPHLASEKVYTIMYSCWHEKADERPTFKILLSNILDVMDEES

Row | Compound | IC50 (HEK-293 cells) [nM] | DC50 (BTK) [nM]
1 | CC(C)(C)c1ccc(Oc2ccc(-c3nn4c(c3C(N)=O)Nc3ccc(C5CCN(CC6CCN(c7ccc(N8CCC(=O)NC8=O)cc7)CC6)CC5)cc3CC4)cc2)cc1 [Example A31, 2-(4-(4-(tert-butyl)phenoxy)phenyl)-7-(1-((1-(4-(2,4-dioxotetrahydropyrimidin-1(2H)-yl)phenyl)piperidin-4-yl)methyl)piperidin-4-yl)-9,10-dihydro-4H-benzo[d]pyrazolo[1,5-a][1,3]diazepine-3-carboxamide] | 556 | 11.9
2 | Cc1c(C(=O)Nc2cscn2)ccc(-c2nn3c(c2C(N)=O)Nc2ccc(N4CCN(C[C@H]5CCN(c6ccc(N7CCC(=O)NC7=O)cc6)C5)CC4)cc2CC3)c1F [Example B103, (R)-7-(4-((1-(4-(2,4-dioxotetrahydropyrimidin-1(2H)-yl)phenyl)pyrrolidin-3-yl)methyl)piperazin-1-yl)-2-(2-fluoro-3-methyl-4-(thiazol-4-ylcarbamoyl)phenyl)-9,10-dihydro-4H-benzo[d]pyrazolo[1,5-a][1,3]diazepine-3-carboxamide] | > 10000 | 3.3
3 | Cc1cccc(NC(=O)c2ccc(-c3nn4c(c3C(N)=O)Nc3ccc(N5CCN(CC6CCN(c7ccc(N8CCC(=O)NC8=O)cc7)CC6)CC5)cc3CC4)cc2C)n1 [Example B21, 7-(4-((1-(4-(2,4-dioxotetrahydropyrimidin-1(2H)-yl)phenyl)piperidin-4-yl)methyl)piperazin-1-yl)-2-(3-methyl-4-((6-methylpyridin-2-yl)carbamoyl)phenyl)-9,10-dihydro-4H-benzo[d]pyrazolo[1,5-a][1,3]diazepine-3-carboxamide] | > 10000 | 0.602
4 | Cc1c(C(=O)Nc2cscn2)ccc(-c2nn3c(c2C(N)=O)Nc2ccc(N4CCN(CC5CN(c6ccc(N7CCC(=O)NC7=O)cc6)C5)CC4)cc2CC3)c1F [Example B97, 7-(4-((1-(4-(2,4-dioxotetrahydropyrimidin-1(2H)-yl)phenyl)azetidin-3-yl)methyl)piperazin-1-yl)-2-(2-fluoro-3-methyl-4-(thiazol-4-ylcarbamoyl)phenyl)-9,10-dihydro-4H-benzo[d]pyrazolo[1,5-a][1,3]diazepine-3-carboxamide] | > 10000 | 2.11
5 | NC(=O)c1c(-c2ccc(Oc3ccccc3)cc2)nn2c1Nc1ccc(N3CCN(c4ccc5c(c4)C(=O)N(C4CCC(=O)NC4=O)C5=O)CC3)cc1CC2 (stereo not shown) [Example A7, 7-(4-(2-(2,6-dioxopiperidin-3-yl)-1,3-dioxoisoindolin-5-yl)piperazin-1-yl)-2-(4-phenoxyphenyl)-9,10-dihydro-4H-benzo[d]pyrazolo[1,5-a][1,3]diazepine-3-carboxamide] | 178 | 2.51
6 | Cc1c(C(=O)Nc2cccc(-c3ccccc3)n2)ccc(-c2nn3c(c2C(N)=O)Nc2ccc(N4CCN(CC5CCN(c6ccc(N7CCC(=O)NC7=O)cc6)CC5)CC4)cc2CC3)c1F [Example B48, 7-(4-((1-(4-(2,4-dioxotetrahydropyrimidin-1(2H)-yl)phenyl)piperidin-4-yl)methyl)piperazin-1-yl)-2-(2-fluoro-3-methyl-4-((6-phenylpyridin-2-yl)carbamoyl)phenyl)-9,10-dihydro-4H-benzo[d]pyrazolo[1,5-a][1,3]diazepine-3-carboxamide] | > 10000 | 4.2
7 | NC(=O)c1c(-c2ccc(Oc3ccccc3)cc2)nn2c1Nc1cc(C3CCN(CC4CCN(c5ccc(N6CCC(=O)NC6=O)cc5)CC4)CC3)ccc1CC2 [Example A27, 6-(1-((1-(4-(2,4-dioxotetrahydropyrimidin-1(2H)-yl)phenyl)piperidin-4-yl)methyl)piperidin-4-yl)-2-(4-phenoxyphenyl)-9,10-dihydro-4H-benzo[d]pyrazolo[1,5-a][1,3]diazepine-3-carboxamide] | 317 | 6.73
8 | Cc1c(C(=O)Nc2cc(C(F)(F)F)ccn2)ccc(-c2nn3c(c2C(N)=O)Nc2ccc(N4CCN(CC5CCN(c6ccc(N7CCC(=O)NC7=O)cc6)CC5)CC4)cc2CC3)c1F [Example B15, 7-(4-((1-(4-(2,4-dioxotetrahydropyrimidin-1(2H)-yl)phenyl)piperidin-4-yl)methyl)piperazin-1-yl)-2-(2-fluoro-3-methyl-4-((4-(trifluoromethyl)pyridin-2-yl)carbamoyl)phenyl)-9,10-dihydro-4H-benzo[d]pyrazolo[1,5-a][1,3]diazepine-3-carboxamide] | 185 | 1.13
9 | COc1ccc(C(=O)NCc2ccc(-c3nn4c(c3C(N)=O)Nc3ccc(N5CCN(CC6CCN(c7ccc(N8CCC(=O)NC8=O)cc7)CC6)CC5)cc3CC4)cc2)c(OC)c1 [Example C23, 2-(4-((2,4-dimethoxybenzamido)methyl)phenyl)-7-(4-((1-(4-(2,4-dioxotetrahydropyrimidin-1(2H)-yl)phenyl)piperidin-4-yl)methyl)piperazin-1-yl)-9,10-dihydro-4H-benzo[d]pyrazolo[1,5-a][1,3]diazepine-3-carboxamide] | > 10000 | 2
10 | COc1ccncc1C(=O)NCc1ccc(-c2nn3c(c2C(N)=O)Nc2ccc(N4CCN(CC5CCN(c6ccc(N7CCC(=O)NC7=O)cc6)CC5)CC4)cc2CC3)cc1C [Example C35, 7-(4-((1-(4-(2,4-dioxotetrahydropyrimidin-1(2H)-yl)phenyl)piperidin-4-yl)methyl)piperazin-1-yl)-2-(4-((4-methoxynicotinamido)methyl)-3-methylphenyl)-9,10-dihydro-4H-benzo[d]pyrazolo[1,5-a][1,3]diazepine-3-carboxamide] | > 10000 | 1.1
11 | NC(=O)c1c(-c2ccc(Oc3ccccc3)cc2)nn2c1Nc1ccc(C(=O)N[C@H]3CC[C@H](CN4CCN(c5cc6c(cc5F)C(=O)N(C5CCC(=O)NC5=O)C6=O)CC4)CC3)cc1CC2 (stereo partly shown) [Example A12, N^7-((1r,4r)-4-((4-(2-(2,6-dioxopiperidin-3-yl)-6-fluoro-1,3-dioxoisoindolin-5-yl)piperazin-1-yl)methyl)cyclohexyl)-2-(4-phenoxyphenyl)-9,10-dihydro-4H-benzo[d]pyrazolo[1,5-a][1,3]diazepine-3,7-dicarboxamide] | 396 | 4.58
12 | NC(=O)c1c(-c2ccc(Oc3ccccc3)cc2)nn2c1Nc1cc(C3CCN(CCc4ccc(N5CCC(=O)NC5=O)cc4)CC3)ccc1CC2 [Example A33, 6-(1-(4-(2,4-dioxotetrahydropyrimidin-1(2H)-yl)phenethyl)piperidin-4-yl)-2-(4-phenoxyphenyl)-9,10-dihydro-4H-benzo[d]pyrazolo[1,5-a][1,3]diazepine-3-carboxamide] | 314 | > 2000
13 | COc1ccccc1C(=O)NCc1ccc(-c2nn3c(c2C(N)=O)Nc2ccc(N4CCN(CC5CCN(c6ccc(N7CCC(=O)NC7=O)cc6)CC5)CC4)cc2CC3)cc1C [Example C32, 7-(4-((1-(4-(2,4-dioxotetrahydropyrimidin-1(2H)-yl)phenyl)piperidin-4-yl)methyl)piperazin-1-yl)-2-(4-((2-methoxybenzamido)methyl)-3-methylphenyl)-9,10-dihydro-4H-benzo[d]pyrazolo[1,5-a][1,3]diazepine-3-carboxamide] | > 10000 | 3.1
14 | Cc1cccc(NC(=O)c2ncc(-c3nn4c(c3C(N)=O)Nc3ccc(N5CCN(CC6CCN(c7ccc(N8CCC(=O)NC8=O)cc7)CC6)CC5)cc3CC4)cc2C)n1 [Example B32, 7-(4-((1-(4-(2,4-dioxotetrahydropyrimidin-1(2H)-yl)phenyl)piperidin-4-yl)methyl)piperazin-1-yl)-2-(5-methyl-6-((6-methylpyridin-2-yl)carbamoyl)pyridin-3-yl)-9,10-dihydro-4H-benzo[d]pyrazolo[1,5-a][1,3]diazepine-3-carboxamide] | 332 | 8.86
15 | Cc1cccc(NC(=O)c2ccc(-c3nn4c(c3C(N)=O)Nc3ccc(N5CCN(C6CC(c7ccc([C@H]8CCC(=O)NC8=O)cc7)C6)CC5)cc3CC4)c(F)c2C)n1 (stereo partly drawn) [Example B67, (R)-7-(4-(3-(4-(2,6-dioxopiperidin-3-yl)phenyl)cyclobutyl)piperazin-1-yl)-2-(2-fluoro-3-methyl-4-((6-methylpyridin-2-yl)carbamoyl)phenyl)-9,10-dihydro-4H-benzo[d]pyrazolo[1,5-a][1,3]diazepine-3-carboxamide] | 96.8 | 0.622
16 | NC(=O)c1c(-c2ccc(OCc3ccccc3)cc2)nn2c1Nc1ccc(N3CCN(CC4CCN(c5ccc(N6CCC(=O)NC6=O)cc5)CC4)CC3)cc1CC2 [Example A38, 2-(4-(benzyloxy)phenyl)-7-(4-((1-(4-(2,4-dioxotetrahydropyrimidin-1(2H)-yl)phenyl)piperidin-4-yl)methyl)piperazin-1-yl)-9,10-dihydro-4H-benzo[d]pyrazolo[1,5-a][1,3]diazepine-3-carboxamide] | 185 | 1.12
17 | Cc1c(C(=O)Nc2cnc3ccccc3n2)ccc(-c2nn3c(c2C(N)=O)Nc2ccc(N4CCN(CC5CCN(c6ccc(N7CCC(=O)NC7=O)cc6)CC5)CC4)cc2CC3)c1F [Example B47, 7-(4-((1-(4-(2,4-dioxotetrahydropyrimidin-1(2H)-yl)phenyl)piperidin-4-yl)methyl)piperazin-1-yl)-2-(2-fluoro-3-methyl-4-(quinoxalin-2-ylcarbamoyl)phenyl)-9,10-dihydro-4H-benzo[d]pyrazolo[1,5-a][1,3]diazepine-3-carboxamide] | > 10000 | 1.9
